Converted amounts (≈) assume the structure as drawn.
Columns and labels:
Staphylococcus aureus [1] = assay: Antibacterial activity against methicillin-sensitive Staphylococcus aureus Newman assessed as bacterial growth inhibition; format: functional
Staphylococcus aureus [2] = assay: Antibacterial activity against methicillin-resistant Staphylococcus aureus N315 assessed as bacterial growth inhibition; format: functional
Staphylococcus aureus [3] = assay: Antibacterial activity against methicillin-resistant and vancomycin-intermediate Staphylococcus aureus Mu50 assessed as bacterial growth inhibition; format: functional
Streptococcus pneumoniae [4] = assay: Antibacterial activity against Streptococcus pneumoniae DSM-20566 assessed as bacterial growth inhibition; format: functional
Streptococcus pneumoniae [5] = assay: Antibacterial activity against penicillin-resistant Streptococcus pneumoniae DSM-11865 assessed as bacterial growth inhibition; format: functional
Enterococcus faecium = assay: Antibacterial activity against Enterococcus faecium DSM-20477 assessed as bacterial growth inhibition; format: functional
Enterococcus faecalis = assay: Antibacterial activity against Enterococcus faecalis DSM-20478 assessed as bacterial growth inhibition; format: functional
Escherichia coli [6] = assay: Antibacterial activity against wild type Escherichia coli DSM-11116 assessed as bacterial growth inhibition; format: functional
Escherichia coli [7] = assay: Antibacterial activity against Escherichia coli K12 harbouring TolC-deficient mutant assessed as bacterial growth inhibition; format: functional
[8] = test system: Mycolicibacterium smegmatis; assay: Antibacterial activity against Mycobacterium smegmatis mc2 155 assessed as bacterial growth inhibition; format: functional
[9] = Chemical stability of compound in DMSO assessed as change in physico-chemical properties incubated for 2 days; format: physicochemical; conditions: 48 h; time 2 day
[10] = Chemical stability of compound in DMSO assessed as change in retardation factor incubated for 2 days; format: physicochemical; conditions: 48 h; time 2 day
[11] = Chemical stability of compound in DMSO assessed as change in mass and purity incubated for 2 days by LC-MS analysis; format: physicochemical; conditions: 48 h; time 2 day
[12] = Stability of the compound in presence of 25kGy gamma irradiation assessed as change in mass and purity by LC-MS analysis; format: physicochemical
[13] = Cytotoxicity against human HepG2 cells assessed as inhibition of cell growth; format: toxicity, cell-based

Row | Compound | MIC (Staphylococcus aureus [1]) | MIC (Staphylococcus aureus [2]) | MIC (Staphylococcus aureus [3]) | MIC (Streptococcus pneumoniae [4]) | MIC (Streptococcus pneumoniae [5]) | MIC (Enterococcus faecium) | MIC (Enterococcus faecalis) | MIC (Escherichia coli [6]) | MIC (Escherichia coli [7]) | MIC [8] | Stability [9] | Stability [10] | Stability [11] | Stability [12] | IC50 [13]
1 | CCCCNc1nc(SCCCC)nc2ccc(Cl)cc12 | > 128 µg/mL | > 128 µg/mL | > 128 µg/mL | > 128 µg/mL | > 128 µg/mL | > 128 µg/mL | > 128 µg/mL | > 128 µg/mL | > 128 µg/mL | > 128 µg/mL |  |  |  |  | 
2 | CCCCNc1nc(SCCCC)nc2ccc(-c3ccc(C(=O)O)cc3)cc12 | > 128 µg/mL | > 128 µg/mL | > 128 µg/mL | > 128 µg/mL | > 128 µg/mL | > 128 µg/mL | > 128 µg/mL | > 128 µg/mL | > 128 µg/mL | > 128 µg/mL |  |  |  |  | 
3 | CCCCNc1nc(SCCCC)nc2c1cnn2CCCC | > 128 µg/mL | > 128 µg/mL | > 128 µg/mL | 8 µg/mL (≈ 23.8 µM) | > 128 µg/mL | > 128 µg/mL | > 128 µg/mL | > 128 µg/mL | > 128 µg/mL | > 128 µg/mL |  |  |  |  | 
4 | CCCCNc1nc(SCCCC)nc2ccc(-c3cccc(C#N)c3)cc12 | > 128 µg/mL | > 128 µg/mL | > 128 µg/mL | > 128 µg/mL | > 128 µg/mL | > 128 µg/mL | > 128 µg/mL | > 128 µg/mL | > 128 µg/mL | > 128 µg/mL |  |  |  |  | 
5 | CCCCNc1nc(SCCCC)nc2cc(Br)ccc12 | > 128 µg/mL | > 128 µg/mL | > 128 µg/mL | > 128 µg/mL | > 128 µg/mL | > 128 µg/mL | > 128 µg/mL | > 128 µg/mL | > 128 µg/mL | > 128 µg/mL |  |  |  |  | 
6 | CCCCNc1nc(SCCCC)nc2ccc(Br)cc12 | > 128 µg/mL | > 128 µg/mL | > 128 µg/mL | > 128 µg/mL | > 128 µg/mL | > 128 µg/mL | > 128 µg/mL | > 128 µg/mL | > 128 µg/mL | > 128 µg/mL |  |  |  |  | 
7 | CCCCNc1nc(SCCCC)nc2cc(F)ccc12 | > 128 µg/mL | > 128 µg/mL | > 128 µg/mL | > 128 µg/mL | > 128 µg/mL | > 128 µg/mL | > 128 µg/mL | > 128 µg/mL | > 128 µg/mL | > 128 µg/mL | Stable | Stable | Stable | Stable | 
8 | CCCCNc1nc(SCCCC)nc2sccc12 | 8 µg/mL (≈ 27.1 µM) | 32 µg/mL (≈ 108 µM) | > 128 µg/mL | 8 µg/mL (≈ 27.1 µM) | 8 µg/mL (≈ 27.1 µM) | > 128 µg/mL | > 128 µg/mL | > 128 µg/mL | 8 µg/mL (≈ 27.1 µM) | 16 µg/mL (≈ 54.1 µM) |  |  |  |  | > 37 µg/mL
9 | CCCCNc1nc(SCCCC)nc2n[nH]cc12 | > 128 µg/mL | > 128 µg/mL | > 128 µg/mL | > 128 µg/mL | > 128 µg/mL | > 128 µg/mL | > 128 µg/mL | > 128 µg/mL | 4 µg/mL (≈ 14.3 µM) | > 128 µg/mL | Stable | Stable | Stable | Stable | 
10 | CCCCNc1nc(SCCCC)nc2ccc(-c3ccncc3)cc12 | > 128 µg/mL | > 128 µg/mL | > 128 µg/mL | > 128 µg/mL | > 128 µg/mL | > 128 µg/mL | > 128 µg/mL | > 128 µg/mL | > 128 µg/mL | > 128 µg/mL |  |  |  |  | 
11 | CCCCNc1nc(SCCCC)nc2ccc(NC(=O)NCC)cc12 | > 128 µg/mL | > 128 µg/mL | > 128 µg/mL | > 128 µg/mL | > 128 µg/mL | > 128 µg/mL | > 128 µg/mL | > 128 µg/mL | > 128 µg/mL | > 128 µg/mL |  |  |  |  | 
12 | CCCCNc1nc(SCCCC)nc2ccc(F)cc12 | > 128 µg/mL | > 128 µg/mL | > 128 µg/mL | > 128 µg/mL | > 128 µg/mL | > 128 µg/mL | > 128 µg/mL | > 128 µg/mL | > 128 µg/mL | > 128 µg/mL |  |  |  |  | 
13 | CCCCNc1nc(SCCCC)nc2ccc(-c3ccccc3)cc12 | > 128 µg/mL | > 128 µg/mL | > 128 µg/mL | > 128 µg/mL | > 128 µg/mL | > 128 µg/mL | > 128 µg/mL | > 128 µg/mL | > 128 µg/mL | > 128 µg/mL | Stable | Stable | Stable | Stable | 
14 | CCCCNc1nc(SCCCC)nc2ccc(-c3cccc(C(=O)O)c3)cc12 | 8 µg/mL (≈ 19.5 µM) | 8 µg/mL (≈ 19.5 µM) | 8 µg/mL (≈ 19.5 µM) | 4 µg/mL (≈ 9.77 µM) | 16 µg/mL (≈ 39.1 µM) | 8 µg/mL (≈ 19.5 µM) | 8 µg/mL (≈ 19.5 µM) | > 128 µg/mL | > 128 µg/mL | > 128 µg/mL |  |  |  |  | > 37 µg/mL
15 | CCCCNc1nc(SCCCC)nc2cc(-c3cccnc3)ccc12 | > 128 µg/mL | > 128 µg/mL | > 128 µg/mL | > 128 µg/mL | > 128 µg/mL | > 128 µg/mL | > 128 µg/mL | > 128 µg/mL | > 128 µg/mL | > 128 µg/mL |  |  |  |  | 
16 | CCCCNc1nc(SCCCC)nc2ccc(-c3cccc(CO)c3)cc12 | > 128 µg/mL | > 128 µg/mL | > 128 µg/mL | > 128 µg/mL | > 128 µg/mL | > 128 µg/mL | > 128 µg/mL | > 128 µg/mL | > 128 µg/mL | > 128 µg/mL |  |  |  |  | 
17 | CCCCSc1nc(SCCCC)c2cc(N)ccc2n1 | 8 µg/mL (≈ 24.9 µM) | 4 µg/mL (≈ 12.4 µM) | 4 µg/mL (≈ 12.4 µM) | 4 µg/mL (≈ 12.4 µM) | 8 µg/mL (≈ 24.9 µM) | 8 µg/mL (≈ 24.9 µM) | 32 µg/mL (≈ 99.5 µM) | > 128 µg/mL | > 128 µg/mL | 32 µg/mL (≈ 99.5 µM) |  |  |  |  | > 37 µg/mL
18 | CCCCNc1nc(SCCCC)nc2ccc(-c3cccc(OC)c3)cc12 | > 128 µg/mL | > 128 µg/mL | > 128 µg/mL | > 128 µg/mL | > 128 µg/mL | > 128 µg/mL | > 128 µg/mL | > 128 µg/mL | > 128 µg/mL | > 128 µg/mL |  |  |  |  | 
19 | CCCCSc1nc(SCCCC)c2cc(NS(=O)(=O)CC)ccc2n1 | > 128 µg/mL | > 128 µg/mL | > 128 µg/mL | 4 µg/mL (≈ 9.67 µM) | 3 µg/mL (≈ 7.25 µM) | 8 µg/mL (≈ 19.3 µM) | 8 µg/mL (≈ 19.3 µM) | > 128 µg/mL | > 128 µg/mL | > 128 µg/mL |  |  |  |  | > 37 µg/mL
20 | CCCCNc1nc(SCCCC)nc2cc(-c3ccccc3)ccc12 | > 128 µg/mL | > 128 µg/mL | > 128 µg/mL | > 128 µg/mL | > 128 µg/mL | > 128 µg/mL | > 128 µg/mL | > 128 µg/mL | > 128 µg/mL | > 128 µg/mL |  |  |  |  | 
21 | CCCCNc1nc(SCCCC)nc2nn(CCCC)cc12 | > 128 µg/mL | > 128 µg/mL | > 128 µg/mL | > 128 µg/mL | > 128 µg/mL | > 128 µg/mL | > 128 µg/mL | > 128 µg/mL | > 128 µg/mL | > 128 µg/mL |  |  |  |  | 
22 | CCCCNc1nc(SCCCC)nc2cc(Cl)ccc12 | > 128 µg/mL | > 128 µg/mL | > 128 µg/mL | > 128 µg/mL | > 128 µg/mL | > 128 µg/mL | > 128 µg/mL | > 128 µg/mL | > 128 µg/mL | > 128 µg/mL |  |  |  |  | 
23 | CCCCNc1nc(SCCCC)nc2ccc(-c3cccnc3)cc12 | > 128 µg/mL | > 128 µg/mL | > 128 µg/mL | > 128 µg/mL | > 128 µg/mL | > 128 µg/mL | > 128 µg/mL | > 128 µg/mL | > 128 µg/mL | > 128 µg/mL |  |  |  |  | 
24 | CCCCNc1nc(SCCCC)nc2ccc(-c3cn[nH]c3)cc12 | > 128 µg/mL | > 128 µg/mL | > 128 µg/mL | > 128 µg/mL | > 128 µg/mL | > 128 µg/mL | > 128 µg/mL | > 128 µg/mL | > 128 µg/mL | > 128 µg/mL |  |  |  |  | 
25 | CCCCNc1nc(SC)nc2n[nH]cc12 | 64 µg/mL (≈ 270 µM) | 64 µg/mL (≈ 270 µM) | 64 µg/mL (≈ 270 µM) | > 128 µg/mL | > 128 µg/mL | > 128 µg/mL | > 128 µg/mL | > 128 µg/mL | 64 µg/mL (≈ 270 µM) | > 128 µg/mL |  |  |  |  | 
26 | CC(=O)NC[C@H]1CN(c2ccc(N3CCOCC3)c(F)c2)C(=O)O1 [LINEZOLID] | 1 µg/mL (≈ 2.96 µM) |  |  |  |  | 4 µg/mL (≈ 11.9 µM) |  | > 64 µg/mL | 16 µg/mL (≈ 47.4 µM) | 4 µg/mL (≈ 11.9 µM) |  |  |  |  | 
27 | CN[C@H](CC(C)C)C(=O)N[C@H]1C(=O)N[C@@H](CC(N)=O)C(=O)N[C@H]2C(=O)N[C@H]3C(=O)N[C@H](C(=O)N[C@H](C(=O)O)c4cc(O)cc(O)c4-c4cc3ccc4O)[C@H](O)c3ccc(c(Cl)c3)Oc3cc2cc(c3O[C@@H]2O[C@H](CO)[C@@H](O)[C@H](O)[C@H]2O[C@H]2C[C@](C)(N)[C@H](O)[C@H](C)O2)Oc2ccc(cc2Cl)[C@H]1O [VANCOMYCIN] |  |  | 8 µg/mL (≈ 5.52 µM) | 0.5 µg/mL (≈ 0.345 µM) | 1 µg/mL (≈ 0.69 µM) |  | 0.5 µg/mL (≈ 0.345 µM) | > 64 µg/mL | > 64 µg/mL | 8 µg/mL (≈ 5.52 µM) |  |  |  |  | 

From ChEMBL document CHEMBL5131432, “Novel 2,4-disubstituted quinazoline analogs as antibacterial agents with improved cytotoxicity profile: Modification of the benzenoid part” (Bioorg Med Chem Lett, 2022)
